Three compounds from patent publication US10435361B2, “Kinase inhibitors” (Topivert Pharma Limited, priority 2013, dated 2019) can be followed below.

Like-named read-outs stand apart in the source and are kept apart here.

Data set [1] deals with PBMCs. Description: Cell mitosis assay in PBMCs. Type of data set: cell-based. The settings on record: Homo sapiens, PBMC, 5 μg/mL. The gist of the method:
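Human PBMCs from healthy donors, density-gradient isolated, stimulated with 2% PHA 48 h, then exposed 20 h to test compounds; demecolcine 0.1 μg/mL added 2 h before harvest. Fixed/permeabilised cells stained for phospho-histone H3 and propidium iodide; mitotic lymphocytes counted by flow cytometry.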

Data set [2] is described as follows: Plasma pharmacokinetics in rats, single intravenous or oral administration. The format is in vivo. The settings on record: male, Wistar, rat; for clearance: rats, intravenous 0.25 mg/kg. As to the method:
(§1) Studies were conducted by Sai Life Sciences (Hinjewadi, Pune, India) to investigate the plasma pharmacokinetics and total colon tissue distribution of compounds of the invention. In particular, pharmacokinetic studies were carried out in: • male C57BL/6 mice, following a single oral administration; and • male Wistar rats following a single intravenous or oral administration.

Data set [3] has as its system Lewis rats. The data set is described as follows: Endotoxin-induced uveitis in rats. Type of data set: in vivo. The note with it: rats treated with intravitreal endotoxin LPS. As to the method: Male, Lewis rats (6-8 weeks old, Charles River UK Limited) are housed in cages of 3 at 19-21° C. with a 12 h light/dark cycle (07:00/19:00) and fed a standard diet of rodent chow and water ad libitum. Non-fasted rats are weighed, individually identified on the tail with a permanent marker, and receive a single intravitreal administration into the right vitreous humor (5 μL dose volume) of 100 ng/animal of LPS (Escherichia coli 0111:B4 prepared in PBS, Sigma Aldrich, UK) using a 32-gauge needle. Untreated rats are injected with PBS. Test compound, dexamethasone (Dex) or vehicle (20% hydroxypropyl-β-cyclodextrin, 0.1% HPMC, 0.01% Benzalkonium chloride, 0.05% EDTA, 0.7% NaCl in deionised water) are administered by the topical route onto the right eye (10 μL) of animals 30 minutes prior to LPS, at the time of LPS administration, and 1, 2 and 4 hours post LPS administration. Before administration, the solution or suspension to be administered is agitated for 5 minutes to ensure a uniform suspension. 6 hours after LPS dosing, animals are euthanized by overdose with pentobarbitone (i.v.). Following euthanasia, the right eye of each animal is enucleated and dissected into front (anterior) and back (posterior) sections around the lens. Each section is weighed and homogenised in 500 μL of sterile phosphate buffered saline followed by 20 minutes centrifugation at 12000 rpm at 4° C. The resulting supernatant is divided into 3 aliquots and stored at −80° C. until subsequent cytokine analysis by R&D DuoSet ELISA.

For data set [4], the system named is d-U937 cells. Description: LPS-induced TNFα/IL-8 release in d-U937 cells. The format is cell-based. The settings on record: Homo sapiens, dU937, assay (aa). As to the method:
U937 cells, a human monocytic cell line, are differentiated to macrophage-type cells by incubation with phorbol myristate acetate (PMA; 100 ng/mL) for 48 to 72 hr. Cells are pre-incubated with final concentrations of test compound for 2 hr and are then stimulated with 0.1 μg/mL of LPS (from E. Coli: 0111:B4, Sigma) for 4 hr. The supernatant is collected for determination of TNFα and IL-8 concentrations by sandwich ELISA (Duo-set, R&D systems). […] The relative 50% effective concentration (REC50) is determined from the resultant concentration-response curve. The inhibition of IL-8 production is calculated at each concentration of test compound by comparison with vehicle control.

A short description of data set [5]: Plasma pharmacokinetics and total colon tissue distribution in mice, single oral administration. Type of data set: in vivo, C57BL/6 mice. The note with it: male, C57BL/6, mouse, 5 mg/kg, read-out: Median plasma concentration. As to the method: as §1
A short description of data set [6]: Analysis of metabolites after incubation with hepatocytes. The format is in vitro ADME. The settings on record: rat, Cynomolgus macaque, human hepatocytes. As to the method:
Studies were conducted by BioFocus (Saffron Walden, UK) to determine the metabolic fate of the compound of Example 16 following incubation with rat, Cynomolgus macaque or human hepatocytes.
Separate incubations (n=3) of the compound of Example 16 (10 μM initial concentration) or DMSO control, were performed with cryopreserved hepatocytes from each species (0.5 million cell/mL) at 37° C. for 0, 60 and 90 minutes before termination of reactions and compound extraction with acetonitrile. Sample replicates were pooled prior to analysis.
Potential metabolites were identified using time-of-flight (TOF) and triple quadruple (TQ) mass spectrometers.

Where [7] appears, read: po, 5 mg/kg, read-out: Median plasma concentration.

Usually inhibition stands for the share of the control response that was lost under treatment. High values mean a strong effect, low ones a weak effect. As usually defined, the IC50 is the concentration that gives 50% inhibition. `COCCOCCOCCOc1cc(Nc2nccc(Oc3ccc(NC(=O)Nc4cc(C(C)(C)C)cc(NS(C)(=O)=O)c4OC)c4ccccc34)n2)cc(OC)c1` [Example 4, N-(5-(tert-Butyl)-2-methoxy-3-(3-(4-((2-((3-methoxy-5-(2-(2-(2-methoxyethoxy)ethoxy)-ethoxy)phenyl)amino)pyrimidin-4-yl)oxy)naphthalen-1-yl)ureido)phenyl)methanesulfonamide] yielded an inhibition at 5 µg/mL in data set [1] of 43%. In addition, the clearance in data set [2] was found to be 7.9 mL/min/kg. In addition, in data set [3], the “cytokine levels in the anterior and posterior segments of the eyes” value is “significantly reduced”. The IC50 worked out at 1 nM in data set [4] (method: relative to 10 μg/mL BIRB796 (REC50), read-out: IC50 Values for Inhibition of Cytokine Release dU937 cells TNFα) and 0.8 nM in data set [4] (read-out: IC50 Values for Inhibition of Cytokine Release dU937 cells IL-8).
In data set [1], `C#Cc1cc(Nc2nccc(Oc3ccc(NC(=O)Nc4cc(C(C)(C)C)cc(NS(C)(=O)=O)c4OC)c4ccccc34)n2)cc(C(=O)NCCOCCOCCOC)c1` [Example 16, 3-((4-((4-(3-(5-(tert-Butyl)-2-methoxy-3-(methylsulfonamido)phenyl)ureido)naphthalen-1-yl)oxy)pyrimidin-2-yl)amino)-5-ethynyl-N-(2-(2-(2-methoxyethoxy)ethoxy)ethyl)benzamide] came in with an inhibition at 5 µg/mL of 20.5%. In data set [2] (setting [7]), the concentration at 0.25 h was determined as 0 ng/mL, the concentration at 0.5 h is 0 ng/mL, the concentration at 1 h stood at 0 ng/mL and the concentration at 2 h came to 0 ng/mL. Besides, in data set [2] (setting [7]), the concentration at 4 h came to 0 ng/mL, the concentration at 6 h came to 0 ng/mL, the concentration at 8 h is 0 ng/mL and the concentration at 12 h was 0 ng/mL. Moreover, in data set [2] (setting [7]), the concentration at 24 h is 0 ng/mL. Further, the clearance in data set [2] was 4.8 mL/min/kg. In addition, in data set [5], the concentration at 1 h was found to be 0 ng/mL, the concentration at 2 h stood at 0 ng/mL, the concentration at 4 h worked out at 0 ng/mL and the concentration at 6 h amounted to 0 ng/mL. Besides, in data set [5], the concentration at 8 h worked out at 0 ng/mL, the concentration at 12 h stood at 0 ng/mL and the concentration at 24 h worked out at 0 ng/mL. Further, the “number of metabolites formed in hepatocytes” value in data set [6] (10 μM, 0, 60 and 90 minutes) is 9. The “metabolism at the naphthalene moiety” value in data set [6] (10 μM) is given as “no products were noted that could be connected to metabolism at the naphthalene moiety”.
In data set [1], `COc1cc(Nc2cc(Oc3ccc(NC(=O)Nc4cc(C(C)(C)C)cc(NS(C)(=O)=O)c4OC)c4ccccc34)ccn2)cc(C(=O)NCCN2CCOCC2)c1` [Example 27, 3-((4-((4-(3-(5-(tert-Butyl)-2-methoxy-3-(methylsulfonamido)phenyl)ureido)naphthalen-1-yl)oxy)pyridin-2-yl)amino)-5-methoxy-N-(2-morpholinoethyl)benzamide] displayed an inhibition at 5 µg/mL of 49.8%. Moreover, the clearance in data set [2] was found to be 7.1 mL/min/kg. The “cytokine levels in the anterior and posterior segments of the eyes” value in data set [3] is recorded as “significantly reduced”.
